# Experimental data from publication PMC12583827, “Harnessing microbial-derived metabolites in the urinary tract to prevent infection induced catheter encrustation” (Nature Communications, 2025).
# Structures can show the parent of a compound that is named as a salt.
# Assays:
# [1] = design: method as in PMID 9792207; conditions: intraperitoneal injections; cited from earlier work
# [2] = design: method as in PMID 9792207; conditions: administered into the lateral ventricle; cited from earlier work
# [3] = design: method as in PMID 9792207; conditions: higher doses, four h post intraperitoneal administration; cited from earlier work
# [4] = system: M. morganii TA43; assay: Growth and viability of M. morganii in dampening metabolites; format: cell-based, Morganella morganii
# Protocol: 478 Supplementary Figure 20. Growth of M. morganii, P. stuartii and UTI MRSA incubated in
# 479 dampening metabolites. M. morganii TA43 (A,D,G), P. stuartii BE2467(B,E,H), UTI MRSA
# 480 (C,F,I) were incubated in urease dampening metabolites to assess impact on growth. Bacteria
# 481 were cultured for ~18 hours in LB (Mm and Ps) or BHI (MRSA) broth, then diluted 1:100 into
# 482 fresh broth with (A-C) the highest concentrations of dampening metabolites assessed for urease
# 483 inhibition or (D-F) serial dilutions of D-imidazole lactate. Bacterial suspensions were incubated
# 484 at 37 °C with double-orbital shaking, and OD600 was measured every 15 minutes for 18 hours.
# 485 Error bars represent mean ± standard deviation (SD) from at least 3 technical replicates, and
# 486 graphs are representative of 3 independent biologic experiments. (G-I) Viability of incubated in
# 487 Mm, Ps or MRSA incubated in serial dilutions of D-imidazole lactate. Overnight cultures were
# (1 picture or pasted object on this page, not shown here)
# 488 subcultured to mid log phase, washed in potassium phosphate buffer, and diluted 1:10 in
# 489 potassium phosphate buffer with and without D-imidazole lactate. Samples (n=3) were incubated
# 490 at 37°C with aeration for one hour then plated and enumerated for colony forming units (CFU).
# [5] = system: P. mirabilis urease operon (ureABC, ureEDF); assay: Real-time quantitative PCR of urease operon; format: cell-based, Proteus mirabilis
# Protocol: P. mirabilis was cultured for ~18 h in LB broth and then sub cultured until it reached mid-log growth phase (OD600 0.2-0.5). Cultures were spun down to pellet at 10,000 rcf for 10 minutes and resuspended in saline to a final OD600 of 1.0. Cultures were then diluted 1:10 into dampening metabolites buffered 1:10 in potassium phosphate buffer pH7 and supplemented with 500 mM urea. P. mirabilis in potassium phosphate buffer without urea served as a negative control. Cultures were incubated in potassium phosphate buffer with and without dampening metabolites at 37 °C with shaking for 15 minutes. RNA isolation, cDNA synthesis and RT qPCR were performed as described previously. […] A RNA integrity analysis using agarose gel electrophoresis on extracted RNA was performed for all samples to confirm no change in transcript stability (Supplementary Fig 16A). The data were analyzed according to the Relative Quantification (RQ) method by Pfaffl et al. 2001[54] (See Supplementary Information).
# 168 Real-time quantitative PCR analysis. The data were analyzed according to the Relative
# 169 Quantification (RQ) method by Pfaffl et al 2001 (56) in which P. mirabilis potassium phosphate
# 170 buffer without urea was considered as the ‘Control’ and P. mirabilis in potassium phosphate
# 171 buffer supplemented with 500mM urea with and without candidate dampening compounds were
# 172 the ‘Sample.’ The full equation is below.
# (E )ΔCPtarget (control−sample)
# 174 Relative Quantification Ratio = target Equation 2
# (Ereference)ΔCPreference (control−sample)
# 176 In this equation, E refers to the primer efficiency of the target gene (Etarget, urease operon
# 177 subunits) or the reference gene (Ereference, rpoA), and CP refers to the Cycle Point, or the cycle
# 178 number at which the signal exceeds the threshold. […]
# 183 for whole genome sequencing on the Illumina NextSeq2000 platform. Read trimming, and run
# 184 analytics were performed using Trimmomatic v0.39.0 (62). The processed reads were assembled
# 185 using spades v3.15.5 (63) wrapped in Unicycler v0.5.0 (64, 65). Read mapping was done using […]
# [6] = system: UTI MRSA urease; assay: UTI MRSA urease activity assay; format: cell-based, Staphylococcus aureus; conditions: whole cell, urease broth
# Protocol: 190 Omega and visualization was carried out using ESPript 3.0 (69), enabling comparison across
# 191 different clinical isolates. Urease genes, including the full operon from ureA to ureR, were
# 192 identified and extracted from the prokka annotated genomes. The extracted protein sequences
# 193 were subjected to sequence alignment using Clustal Omega and visualization was carried out
# 194 using ESPript 3.0 [8], enabling comparison across different clinical isolates.
# 195 UTI MRSA urease activity assay. The UTI MRSA urease assay was adapted from a recently-
# 196 published semi quantitative assay to measure urease activity in bacterial species with low overall
# 197 activity under standard conditions (50). Dampening metabolites were directly dissolved in urease
# 198 broth (1 g tryptone (RPI; CAS No. 91079-40-2), 1 g D(+)-glucose (RPI; CAS No. 50-99-7), 2 g
# 199 potassium phosphate monobasic anhydrous (VWR; Lot: 20C1356567), 5 g sodium chloride
# 201 of MilliQ water, pH 5.5, sterilized via autoclaving). UTI MRSA strains from overnight cultures
# 202 were harvested by centrifugation for 5 minutes at 10,000 g, washed with 1 volume of 1X
# 203 Phosphate Buffered Saline (PBS), and resuspended in urease broth. Bacterial cultures were […]
# 205 measured at 415 nm, 560 nm, and 600 nm every 20 mins for 24 hours, shaking at 37°C using a
# 206 BioTek Synergy|H1 microtiter plate reader. Urease activity was calculated by dividing the OD […]
# [7] = system: isolated guinea pig bladders; conditions: cited from earlier work
# [8] = system: P. mirabilis urease; conditions: 104V0, 106V15, HU1069 compared with HI4320
compound,measurement,setting,value
"Cl.O=C(O)Cc1cnc[nH]1 [4-imidazole acetate, 2-(1H-Imidazol-5-yl)acetic acid hydrochloride]",effects in mice,[1],sleep-like state and a decrease in body temperature
same,blood pressure in cats,[2],dose-dependent decrease in blood pressure
same,effects in rats,[3],seizures
"O.O=C(O)[C@H](O)Cc1cnc[nH]1 [D-imidazole lactate, D-imidazolelactic acid hydrate]",growth of M. morganii,[4]; LB broth,perturbed growth
same,antimicrobial activity against M. morganii TA43,"[4]; incubation in potassium phosphate, CFU",robust antimicrobial activity
same,relative expression of urease mRNA transcripts,"[5]; 15-minute incubation, 500 mM urea",decreased
same,pool of rpoA mRNA transcripts,[5]; 15 minutes incubation,did not affect
same,urease activity in MRSA,[6],least potent
"NCCc1c[nH]cn1 [Histamine, histamine dihydrochloride]",response of isolated guinea pig bladders,[7],induce a contractile response
same,urease-dampening activity against P. mirabilis clinical isolates,[8],slightly less potent
